Source: patent US5656638A, “Telomerase inhibitors” (Geron Corporation, priority 1995, dated 1997)
“Also recorded” adds a separate entry of the source. Read-outs that look alike come from different tables or passages of the source.

Target: T1, telomerase (Homo sapiens, UniProt O14746)
T1 construct: placing cells, tissues, or preferably a cellular extract or other preparation containing telomerase in contact with; endogenous in cells
Assay: telomerase inhibition, IC50 (Table 1)
Assay type: biochemical
Source text: One method used to identify compounds of the invention that inhibit telomerase activity involves placing cells, tissues, or preferably a cellular extract or other preparation containing telomerase in contact with several known concentrations of a test compound in a buffer compatible with telomerase activity. […] Other methods for determining the inhibitory concentration of a compound of the invention against telomerase can be employed as will be apparent to those of skill in the art based on the disclosure herein.
With the above-described methods, IC50 values for several of the compounds of the present invention were determined. The values reported in Table 1 below are only approximate values; more exact IC50 values can be obtained by repetitive testing.

[1] = Table 1, approximate values only, read-out: IC50
[2] = summary of Table 1, approximate IC50 values, read-out: IC50 (bound stated in text)

T1 sequence (O14746 whole entry): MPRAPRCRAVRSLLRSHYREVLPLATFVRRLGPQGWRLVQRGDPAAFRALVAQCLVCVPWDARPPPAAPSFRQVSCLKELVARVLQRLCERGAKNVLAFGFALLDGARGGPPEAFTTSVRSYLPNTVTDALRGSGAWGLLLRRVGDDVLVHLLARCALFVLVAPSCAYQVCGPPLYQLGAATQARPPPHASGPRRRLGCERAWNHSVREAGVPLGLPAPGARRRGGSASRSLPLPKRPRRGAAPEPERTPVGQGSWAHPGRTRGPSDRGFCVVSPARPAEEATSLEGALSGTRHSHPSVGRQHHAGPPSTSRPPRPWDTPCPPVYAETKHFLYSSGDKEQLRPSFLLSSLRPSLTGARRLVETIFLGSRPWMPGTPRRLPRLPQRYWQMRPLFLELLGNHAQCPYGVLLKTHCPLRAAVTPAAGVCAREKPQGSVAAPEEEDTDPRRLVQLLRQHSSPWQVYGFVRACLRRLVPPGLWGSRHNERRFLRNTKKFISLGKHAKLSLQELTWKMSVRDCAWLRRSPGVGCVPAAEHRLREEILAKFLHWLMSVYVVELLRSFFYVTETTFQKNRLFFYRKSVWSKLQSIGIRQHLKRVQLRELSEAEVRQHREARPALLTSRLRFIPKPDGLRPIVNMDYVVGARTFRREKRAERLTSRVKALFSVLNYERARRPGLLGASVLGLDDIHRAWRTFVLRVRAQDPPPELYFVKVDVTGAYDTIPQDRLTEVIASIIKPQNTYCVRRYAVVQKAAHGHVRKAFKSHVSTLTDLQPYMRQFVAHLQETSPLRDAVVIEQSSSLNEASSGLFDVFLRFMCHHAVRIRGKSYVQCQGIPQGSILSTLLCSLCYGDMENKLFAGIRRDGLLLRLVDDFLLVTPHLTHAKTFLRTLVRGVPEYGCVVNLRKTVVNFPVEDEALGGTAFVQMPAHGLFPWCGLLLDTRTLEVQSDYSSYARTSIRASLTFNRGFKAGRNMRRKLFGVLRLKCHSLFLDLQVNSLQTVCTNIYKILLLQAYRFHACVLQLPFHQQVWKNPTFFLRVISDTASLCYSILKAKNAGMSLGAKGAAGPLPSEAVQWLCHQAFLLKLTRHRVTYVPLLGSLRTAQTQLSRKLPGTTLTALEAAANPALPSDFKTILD
T1 sequence (O60832 whole entry partner): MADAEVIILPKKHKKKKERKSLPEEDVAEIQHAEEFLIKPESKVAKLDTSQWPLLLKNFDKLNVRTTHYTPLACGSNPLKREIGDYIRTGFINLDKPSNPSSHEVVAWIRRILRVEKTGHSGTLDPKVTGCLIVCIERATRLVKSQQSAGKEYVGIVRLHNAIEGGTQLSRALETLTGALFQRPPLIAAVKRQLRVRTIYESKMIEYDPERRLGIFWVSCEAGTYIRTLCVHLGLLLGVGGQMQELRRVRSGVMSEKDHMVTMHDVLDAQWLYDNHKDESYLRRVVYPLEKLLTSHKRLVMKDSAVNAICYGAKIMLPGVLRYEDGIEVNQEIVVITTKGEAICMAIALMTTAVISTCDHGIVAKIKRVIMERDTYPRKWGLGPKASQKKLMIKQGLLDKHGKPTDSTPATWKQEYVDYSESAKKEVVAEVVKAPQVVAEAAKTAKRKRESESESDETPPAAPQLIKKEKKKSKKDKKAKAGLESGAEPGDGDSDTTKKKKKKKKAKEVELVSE
T1 sequence (Q9NPE3 whole entry partner): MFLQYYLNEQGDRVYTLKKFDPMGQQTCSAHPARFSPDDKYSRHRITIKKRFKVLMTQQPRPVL
T1 sequence (Q9NX24 whole entry partner): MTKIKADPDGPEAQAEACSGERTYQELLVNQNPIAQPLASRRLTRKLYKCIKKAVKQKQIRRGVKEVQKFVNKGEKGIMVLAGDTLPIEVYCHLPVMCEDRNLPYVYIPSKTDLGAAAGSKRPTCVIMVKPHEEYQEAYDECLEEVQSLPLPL
T1 sequence (Q9NY12 whole entry partner): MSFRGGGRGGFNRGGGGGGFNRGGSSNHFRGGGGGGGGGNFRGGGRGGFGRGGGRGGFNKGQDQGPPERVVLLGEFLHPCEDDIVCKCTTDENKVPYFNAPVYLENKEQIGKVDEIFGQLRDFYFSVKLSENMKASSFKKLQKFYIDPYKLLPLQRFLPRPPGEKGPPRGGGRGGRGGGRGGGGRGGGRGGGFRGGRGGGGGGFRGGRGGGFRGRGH

Compound	anti-telomerase activity (in words)	IC50 [1] [µM]	IC50 [2] [µM]
Cc1cc(N=Cc2ccc3c(N)c(-c4ccc(Cl)c(Cl)c4)oc3n2)n[nH]1 [Compound XV]	good anti-telomerase activity	49	–
CC(C)(C)c1ccc(-c2noc(-c3sc4nc(C=O)ccc4c3N)n2)cc1 [Compound X]	–	42	–
Nc1c(C(=O)c2ccc(Cl)cc2Cl)sc2nc(C=NC3C4CC5CC(C4)CC3C5)ccc12 (centres unmarked) [Compound IV]	–	26	–
Nc1c(C(=O)c2ccc(Cl)c(Cl)c2)oc2nc(C=O)ccc12 [Compound XIV]	–	31	–
Nc1c(C(=O)c2ccc(Cl)c(Cl)c2)sc2nc(C=O)ccc12 [Compound VIII]	particularly good anti-telomerase activity; also recorded: strong telomerase inhibitors	28	< 30
Nc1c(C(=O)c2ccc(Cl)c(Cl)c2)sc2nc(C=NNc3ccc(Cl)cc3)ccc12 [Compound XII]	good anti-telomerase activity; also recorded: strong telomerase inhibitors	21	< 30
Nc1c(C(=O)c2ccc(Br)cc2)sc2nc(C=NC3C4CC5CC(C4)CC3C5)ccc12 (centres unmarked) [Compound III]	strong telomerase inhibitors	4	< 30
Nc1c(C(=O)c2ccc(Cl)cc2Cl)sc2nc(C=O)ccc12 [Compound VI]	particularly good anti-telomerase activity; also recorded: strong telomerase inhibitors	29	< 30
Nc1c(-c2ncc(C(F)(F)F)cc2Cl)sc2nc(C=O)ccc12 [Compound IX]	strong telomerase inhibitors	24	< 30
Nc1c(C(=O)c2ccc(Cl)c(Cl)c2)sc2nc(C=NNc3ccccc3)ccc12 [Compound XI]	good anti-telomerase activity	42	–
Nc1c(C(=O)c2ccc(Cl)c(Cl)c2)sc2nc(C=NC3C4CC5CC(C4)CC3C5)ccc12 (centres unmarked) [Compound V]	strong telomerase inhibitors	30	< 30
Cc1ccc(NN=Cc2ccc3c(N)c(C(=O)c4ccc(Br)cc4)sc3n2)cc1 [Compound XIII]	good anti-telomerase activity	18	–
Nc1c(C(=O)c2ccc(Br)cc2)sc2nc(C=O)ccc12 [Compound VII]	particularly good anti-telomerase activity	48	–
